Data reported in patent publication US20210238197A1, “NOVEL OXOQUINOLIZINE COMPOUNDS FOR THE TREATMENT AND PROPHYLAXIS OF BACTERIAL INFECTION” (Hoffmann-La Roche Inc., priority 2018, published 2021).
Values after ≈ are worked out from the molar mass of the structure shown. Read-outs that look alike come from different tables or passages of the source.

Tests used:
S. aureus (ATCC29213) = assay: 50% growth inhibitory concentration (IC50) determination assay, S. aureus; assay type: cell-based; settings: Iso-Sensitest broth, growth by OD 600 nm over 16 h, <0.098 = detection limit
Protocol: (§1) The in vitro antimicrobial activity of the compounds against S. aureus (ATCC29213), K. pneumoniae (ATCC10031), and A. baumannii (ATCC17978), was determined according to the following procedure: The assay used a 10-points Iso-Sensitest broth medium to measure quantitatively the in vitro activity of the compounds against S. aureus ATCC29213, K. pneumoniae ATCC 10031, and A. baumannii ATCC17978. Stock compounds in DMSO were serially two-fold diluted (range from 50 to 0.097 μM final concentration) in 384 wells microtiter plates and inoculated with 49 μL the bacterial suspension in Iso-Sensitest broth medium to have a final cell concentration of ˜5×10^5 CFU/mL in a final volume/well of 50 μL/well. Microtiter plates were incubated at 35±2° C. Bacterial cell growth was determined with the measurement of optical density at λ=600 nm each 20 minutes over a time course of 16 h.

[1] = tested on: K. pneumoniae (ATCC10031); assay: 50% growth inhibitory concentration (IC50) determination assay, K. pneumoniae; assay type: cell-based; settings: Iso-Sensitest broth, growth by OD 600 nm over 16 h, <0.098 = detection limit
Protocol: as §1

A. baumannii (ATCC17978) = assay: 50% growth inhibitory concentration (IC50) determination assay, A. baumannii; assay type: cell-based; settings: Iso-Sensitest broth, growth by OD 600 nm over 16 h, <0.098 = detection limit
Protocol: as §1

[2] = tested on: multiple species and strains; assay: microbe, parasite or virus in culture; set-up: MIC S9 / MIC S7 / MIC S11 / MIC S8 / MIC S10: unit not given beside the values; settings: for MIC S9: E. coli ATCC 35218
Protocol: The MIC of antibacterial compounds against multiple species and strains was determined using the broth microdilution method according to M07-A10 Clinical and Laboratory Standards Institute (CLSI) guidelines (CLSI (2015) Methods for dilution antimicrobial susceptibility tests for bacteria that grow aerobically; Approved Standard, Tenth Edition. CLSI Document M7-A10 (ISBN 1-56238-987-4). Wayne, Pa.: Clinical and Laboratory Standards Institute, 19087, USA.). In short, bacterial strain preparation was performed on D1 and D2. […] 5-10 well-isolated colonies of similar morphology were selected and re-streaked onto fresh agar plates using sterile loops and incubated for 20-24 hr at 35±2° C. Bacterial strains were subcultured two times to ensure fresh inoculums for MIC screening. […] Alternatively, 1-2 colonies were transferred into 500 μL of saline and OD600 was adjusted to ˜0.1 using an OD meter. Bacterial inoculum was diluted by 1:280 for Gram-positive strains and 1:400 for Gram-negative strains into corresponding medium broth (CAMHB, CAMHB+3% lysed horse blood, HTM) (e.g. 35.6 μL of inoculum into 10 mL of CAMHB or 25 μL of inoculum into 10 mL of CAMHB). For compound plate, the compound stock solutions were prepared in 100% DMSO on the day of MIC screening and used immediately. Compound stock concentration=[(highest testing concentration)×100 μL/2 μL] (e.g. if the required highest testing concentration is 64 μg/mL in assay plates, stock concentration=64 μg/mL×100 μL/2 μL=3.2 mg/mL). […] 1 μL of each well was transferred in a new MTP, which served as the test plate by subsequent inoculation. The bacterial suspension prepared above is dispensed at 98 μL/well within 15 minutes after preparation. Negative controls (lack of bacterial cells) and growth control wells (lack of compound) were included in all plates. MTPs were incubated for 18-24 hours at 35±2° C. in ambient air. The MIC was recorded and CFUs were calculated on Day 4. The assay plate was placed on the top of MIC reader, and the magnification mirror was adjusted to read each wells, recording growth status as raw data. Photo images of each assay plates were recorded using Q Count 530 (Spiral Biotech). The MIC value of each compound, expressed as μg/mL, was determined as the lowest concentration required for complete growth inhibition (no visible growth).

[3] = Cytotoxicity assay (HepG2, CellTiter-Blue); assay type: cell-based; settings: human; HepG2 cells, 3 days treatment; >100 = detection limit
Protocol: The cytotoxicity of compounds of present invention was assessed by HepG2 assay. HepG2 cells (ATCC RB-8065™) were seeded into 96-well plates (1.2×10^4 cells per well) and treated with compounds for 3 days, cell viability was measured at day 3 post compound treatment using the CellTiter-Blue® Cell Viability Assay (Promega, Cat. No. G8082). […], of Cell titer blue buffer were added to each well of the cells, which were incubated for 3 hours at 37° C., and the fluorescence value was measured by a plate reader (Molecular Device SpectraMax M2). The CC50 value of each compound is plotted with GraphPad Prism using four parameter logistic equation.

[4] = Staphylococcus aureus, ATCC29213
[5] = Klebsiella pneumoniae, ATCC10031
[6] = Acinetobacter baumannii, ATCC17978
[7] = Acinetobacter baumannii, ATCC19606, read-out: MIC S1, A. baumannii ATCC 19606
[8] = Acinetobacter baumannii, ATCC51432, read-out: MIC S2, A. baumannii ATCC 51432
[9] = Acinetobacter baumannii, ATCCBAA747, read-out: MIC S3, A. baumannii ATCC BAA-747
[10] = Escherichia coli, ATCC25922, read-out: MIC S11, E. coli ATCC 25922
[11] = Escherichia coli, ATCCBAA2340, read-out: MIC S10, E. coli ATCC BAA-2340
[12] = Klebsiella pneumoniae, ATCC10031, read-out: MIC S4, K. pneumoniae ATCC 10031
[13] = Klebsiella pneumoniae, ATCC700603, read-out: MIC S5, K. pneumoniae ATCC 700603
[14] = Klebsiella pneumoniae, ATCCBAA2146, read-out: MIC S6, K. pneumoniae ATCC BAA-2146
[15] = Pseudomonas aeruginosa, ATCC27853, read-out: MIC S7, P. aeruginosa ATCC 27853
[16] = Pseudomonas aeruginosa, ATCCBAA2113, read-out: MIC S8, P. aeruginosa ATCC BAA-2113

For `CNc1cc(F)c(C#N)c2c1[nH]c1ncc(-c3ccc4ccc(C(=O)O)c(=O)n4c3)c(N3C[C@H]4CCN(C)[C@H]4C3)c12` (single isomer, unassigned) [Example 1.16, 7-[4-[cis-1-methyl-2,3,3a,4,6,6a-hexahydropyrrolo[3,4-b]pyrrol-5-yl]-5-cyano-6-fluoro-8-(methylamino)-9H-pyrido[2,3-b]indol-3-yl]-4-oxo-quinolizine-3-carboxylic acid], the IC50 (S. aureus (ATCC29213)) was < 0.098 µM, the IC50 [1] was < 0.098 µM and the IC50 (A. baumannii (ATCC17978)) was < 0.098 µM. For the same molecule, the “MIC S1” value ([2]; A. baumannii ATCC 19606) was 0.431, the “MIC S2” value ([2]; A. baumannii ATCC 51432) was 0.216 and the “MIC S3” value ([2]; A. baumannii ATCC BAA-747) was 0.216. The “MIC S11” value ([2]; E. coli ATCC 25922) was 0.040, the “MIC S9” value [2] was 0.216 and the “MIC S10” value ([2]; E. coli ATCC BAA-2340) was 0.216. For the same molecule, the “MIC S4” value ([2]; K. pneumoniae ATCC 10031) was 0.027, the “MIC S5” value ([2]; K. pneumoniae ATCC 700603) was 1.724 and the “MIC S6” value ([2]; K. pneumoniae ATCC BAA-2146) was 1.724. The “MIC S7” value ([2]; P. aeruginosa ATCC 27853) was 0.431 and the “MIC S8” value ([2]; P. aeruginosa ATCC BAA-2113) was 3.447.
With `CNc1cc(F)c(F)c2c1[nH]c1ncc(-c3ccc4ccc(C(=O)O)c(=O)n4c3)c(N3CC[C@@]4(C[C@@H]4N)C3)c12` (single isomer, unassigned) [Example 4.01A] the IC50 (S. aureus (ATCC29213); [4]) was < 0.098 µM, the IC50 [1, 5] was < 0.098 µM and the IC50 (A. baumannii (ATCC17978); [6]) was < 0.098 µM. For the same molecule, the MIC [2, 7] was 0.445 µg/mL (≈ 0.839 µM), the MIC [2, 8] was 0.445 µg/mL (≈ 0.839 µM) and the MIC [2, 9] was 0.592 µg/mL (≈ 1.12 µM). The “MIC S9” value [2] was 0.297, the MIC [2, 10] was 0.111 µg/mL (≈ 0.209 µM) and the MIC [2, 11] was 0.297 µg/mL (≈ 0.56 µM). It also gave an MIC [2, 12] of 0.074 µg/mL (≈ 0.139 µM), an MIC [2, 13] of 2.37 µg/mL (≈ 4.47 µM) and an MIC [2, 14] of 2.37 µg/mL (≈ 4.47 µM). The MIC [2, 15] was 0.592 µg/mL (≈ 1.12 µM) and the MIC [2, 16] was 1.19 µg/mL (≈ 2.24 µM).
In the case of `CNc1cc(F)c(F)c2c1[nH]c1ncc(-c3ccc4ccc(C(=O)O)c(=O)n4c3)c(N(C)C)c12` [Example 1.01, 7-(4-(Dimethylamino)-5,6-difluoro-8-(methylamino)-9H-pyrido[2,3-b]indol-3-yl)-4-oxo-411-quinolizine-3-carboxylic acid], the IC50 (S. aureus (ATCC29213); [4]) is reported as < 0.098 µM, the IC50 [1, 5] is reported as < 0.098 µM and the IC50 (A. baumannii (ATCC17978); [6]) is reported as < 0.098 µM. It also gave an MIC [2, 7] of 0.057 µg/mL (≈ 0.123 µM), an MIC [2, 8] of 0.45 µg/mL (≈ 0.971 µM) and an MIC [2, 9] of 0.225 µg/mL (≈ 0.485 µM). For the same molecule, the “MIC S9” value [2] was 0.113, the MIC [2, 10] was 0.169 µg/mL (≈ 0.365 µM) and the MIC [2, 11] was 0.225 µg/mL (≈ 0.485 µM). For the same molecule, the MIC [2, 12] was 0.057 µg/mL (≈ 0.123 µM), the MIC [2, 13] was 0.45 µg/mL (≈ 0.971 µM) and the MIC [2, 14] was 1.8 µg/mL (≈ 3.89 µM). For the same molecule, the MIC [2, 15] was 0.901 µg/mL (≈ 1.94 µM) and the MIC [2, 16] was 0.901 µg/mL (≈ 1.94 µM).
`CNc1cc(F)c(F)c2c1[nH]c1ncc(-c3ccc4ccc(C(=O)O)c(=O)n4c3)c(N3CC4[C@H](CC[C@H]4N(C)C)C3)c12` (stereo partly drawn) [Example 1.05, 7-[4-[cis-(4R)-4-(dimethylamino)-3,3a,4,5,6,6a-hexahydro-1H-cyclopenta[c]pyrrol-2-yl]-5,6-difluoro-8-(methylamino)-9H-pyrido[2,3-b]indol-3-yl]-4-oxo-quinolizine-3-carboxylic acid] gave a CC50 at 3 days [3] of 15.5 µM.
